According to patent US20050282755A1, “Compositions having antimicrobial activity and uses thereof” (priority 2004, published 2005):
Values after ≈ are worked out from the molar mass of the structure shown. Non-standard residues stand in square brackets, D forms with d. Residues, ends and D or L forms follow the SMILES beside them. *: point of attachment. Lauroyl = CCCCCCCCCCCC(=O)*; Hexanoyl = CCCCCC(=O)*

Assays:
Format in all cases: cell-based
[1] = tested on: Salmonella dublin (Lane); assay: MIC, NCCLS M7-A6 broth microdilution (Table 9, no superscript)
Procedure, shortened: (§1)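 Broth microdilution in cation-adjusted Mueller Hinton broth with log-phase inoculum at 5×10^5 to 1×10^6 CFU/mL, incubated overnight at 37° C. MIC was the lowest peptide concentration showing no visible turbidity versus the no-peptide control.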

[2] = tested on: Staphylococcus epidermidis ATCC 12228; assay: as above; settings: ATCC 12228
Procedure, shortened: as §1

[3] = tested on: Escherichia coli ATCC 25922; assay: as above; settings: ATCC 25922
Procedure, shortened: as §1

[4] = tested on: Pseudomonas aeruginosa ATCC 27853; assay: as above; settings: ATCC 27853
Procedure, shortened: as §1

[5] = tested on: Staphylococcus aureus ATCC 29213; assay: MIC, NCCLS M7-A6 broth microdilution, cation-adjusted Mueller Hinton broth (Table 9, no superscript); settings: ATCC 29213
Procedure, shortened: as §1

[6] = tested on: Candida albicans ATCC 18804; assay: MIC in yeasts, NCCLS M27-A2 broth microdilution, RPMI 1640 (Table 9, letter e); settings: ATCC 18804
Experimental: Briefly, RPMI 1640 supplemented with glutamine and phenol red as a pH indicator was used in the broth microdilution method. A 96-well plate was inoculated so that the final inoculum of yeast for each well contained between 0.5×10^3 and 2.5×10^3 CFU/milliliter. […] Plates were incubated for 24 to 48 hours at 37° C. The lowest concentration of peptide that contained no visible growth was determined as the MIC. MIC values that utilized this method of MIC determination are indicated in Table 9 with a subscript letter “e.” “Peptide Number” corresponds to peptide compositions and corresponding designations in Table 3.

Structure (SMILES) | MIC S. dublin [1] | MIC S. epidermidis [2] | MIC E. coli [3] | MIC P. aeruginosa [4] | MIC S. aureus [5] | MIC C. albicans [6]
CCCCCCCCCCCC(=O)N[C@@H](CCCNC(=N)N)C(=O)N[C@@H](CO)C(=O)N[C@@H](CCCNC(=N)N)C(=O)N[C@@H](Cc1c[nH]c2ccccc12)C(=O)N[C@@H](CCCNC(=N)N)C(=O)N[C@@H](CC(=O)O)C(=O)N[C@H](C(N)=O)C(C)C [Peptide 103, Lauryl-RSRWRDV-NH2] (Lauroyl-RSRWRDV-NH2) | >64 µg/mL | 64 µg/mL (≈ 55.4 µM) | >64 µg/mL | >64 µg/mL | >32 µg/mL | >64e ug/mL
CCCCCCCCCCCC(=O)N[C@@H](Cc1c[nH]c2ccccc12)C(=O)N[C@@H](CCCNC(=N)N)C(=O)N[C@@H](CC(=O)O)C(=O)N[C@H](C(=O)N[C@@H](C)C(=O)N[C@@H](CCCNC(=N)N)C(=O)N[C@@H](CC(N)=O)C(=O)N[C@@H](Cc1ccccc1)C(=O)N[C@@H](CCSC)C(=O)N[C@@H](CCCNC(=N)N)C(N)=O)C(C)C [Peptide 112, Lauryl-WRDVARNFMR-NH2] (Lauroyl-WRDVARNFMR-NH2) | >64 µg/mL |  |  |  | >64 µg/mL | >64e ug/mL
CCCCCCCCCCCC(=O)N[C@H](CCCNC(=N)N)C(=O)N[C@H](CO)C(=O)N[C@H](CCCNC(=N)N)C(=O)N[C@H](Cc1c[nH]c2ccccc12)C(=O)N[C@H](CCCNC(=N)N)C(=O)N[C@H](CC(=O)O)C(=O)N[C@@H](C(=O)N[C@H](C)C(=O)N[C@H](CCCNC(=N)N)C(=O)N[C@H](CC(N)=O)C(N)=O)C(C)C [Peptide 117, Lauryl-rsrwrdvarn-NH2] (Lauroyl-[dR][dS][dR][dW][dR][dD][dV][dA][dR][dN]-NH2) | >64 µg/mL | 16 µg/mL (≈ 10.7 µM) | >64 µg/mL | 64 µg/mL (≈ 42.8 µM) | 32 µg/mL (≈ 21.4 µM) | 16e ug/mL
CCCCCCCCCCCC(=O)N[C@H](CCCNC(=N)N)C(=O)N[C@H](CO)C(=O)N[C@H](CCCNC(=N)N)C(=O)N[C@H](Cc1c[nH]c2ccccc12)C(=O)N[C@H](CCCNC(=N)N)C(=O)N[C@H](CC(=O)O)C(=O)N[C@@H](C(=O)N[C@H](C)C(N)=O)C(C)C [Peptide 119, Lauryl-rsrwrdva-NH2] (Lauroyl-[dR][dS][dR][dW][dR][dD][dV][dA]-NH2) | 64 µg/mL (≈ 52.2 µM) | 16 µg/mL (≈ 13 µM) | 64 µg/mL (≈ 52.2 µM) | 32 µg/mL (≈ 26.1 µM) | 32 µg/mL (≈ 26.1 µM) | 16e ug/mL
CCCCCCCCCCCC(=O)N[C@H](CO)C(=O)N[C@H](CCCNC(=N)N)C(=O)N[C@H](Cc1c[nH]c2ccccc12)C(=O)N[C@H](CCCNC(=N)N)C(=O)N[C@H](CC(=O)O)C(=O)N[C@@H](C(=O)N[C@H](C)C(N)=O)C(C)C [Peptide 121, Lauryl-srwrdva-NH2] (Lauroyl-[dS][dR][dW][dR][dD][dV][dA]-NH2) | >64 µg/mL | >64 µg/mL | >64 µg/mL | >64 µg/mL | >64 µg/mL | >64e ug/mL
CCCCCC(=O)N[C@H](CCCNC(=N)N)C(=O)N[C@H](CO)C(=O)N[C@H](CCCNC(=N)N)C(=O)N[C@H](Cc1c[nH]c2ccccc12)C(=O)N[C@H](CCCNC(=N)N)C(=O)N[C@H](CC(=O)O)C(=O)N[C@@H](C(=O)N[C@H](C)C(=O)N[C@H](CCCNC(=N)N)C(=O)N[C@H](CC(N)=O)C(=O)N[C@H](Cc1ccccc1)C(=O)N[C@H](CC(C)C)C(=O)N[C@H](CCCNC(=N)N)C(N)=O)C(C)C [Peptide 251, Hexyl-rsrwrdvarnflr-NH2] (Hexanoyl-[dR][dS][dR][dW][dR][dD][dV][dA][dR][dN][dF][dL][dR]-NH2) |  |  |  |  |  | 64e ug/mL
